Results published in patent US20240207208A1, “Treatments for Diabetes Mellitus and Obesity” (The Board of Trustees of the Leland Stanford Junior …, priority 2011, published 2024).

Legend:
[1] = Oral glucose tolerance test (OGTT) after local RTX treatment of the intestine; format: in vivo, Sprague-Dawley rats
Text: (§1) Adult male Sprague-Dawley rats (Harlan, Indianapolis, IN) weighing 280-350 g were used in all the experiments. The animal protocol was approved by the Institutional Animal Care and Use Committee of the Stanford University Medical Center.
(§2) Rats were randomly divided into six groups: 1, vehicle solution treated on the surface of duodenum (n=4); 2, RTX solution treated on the surface of duodenum (n=4); 3, vehicle solution treated on the surface of ileum (1 rat) or colon (1 rat) (n=2); 4, RTX solution treated on the surface of ileum (2 rats) or colon (1 rat) (n=3); 5. Vehicle solution infuse into duodenum (n=2); 6. RTX solution infuse into duodenum (n=3).
Rats were fasted overnight prior to surgery having free access to water. Under 2% isoflurane-induced anesthesia, the abdomen was opened through a midline incision for the duodenum treatment and lower line for ileum or colon treatment. These intestines were exposed and protected with warm saline sponges around the intestine. Procedure 1: RTX application on the surface of intestine: The cotton applicator with RTX((0.32 mM) or vehicle solution were gently applied topically to the outer surface of entire duodenum (about 10 cm from the beginning of the duodenum) for 5 min. Same treatment in ileum and colon groups were applied on about 10 cm long of distal ileum and colon. Procedure 2: RTX or vehicle infused into duodenum: Two atraumatic clamps used to block on beginning and distal of duodenum. 0.8 ml of 0.32 mM RTX or vehicle was infused into duodenum through a glass syringe with a 27 gauge needle. After 30 min the RTX or vehicle solution were withdrawn and the clamps were released. After treatment, the abdominal incisions were closed. […]
Post RTX treatment 1st, 3rd and 7th week all the rats were performed the OGTT. After 17 hours overnight fasting, blood glucose was measured in conscious rats by tail-stick, using a glucose meter (Bayer Healthcare LLC, Mishawaka, IN). OGTT was measured before (baseline) and each 15 minutes for 2 hours after oral gavage glucose (1 g/kg body weight). […]

[2] = Body weight change monitoring after local RTX treatment of the intestine; format: in vivo, Sprague-Dawley rats; set-up: body weight: unit not given here; details: for body weight: mean±s.e.
Text: as §1, §2
Rats were fasted overnight prior to surgery having free access to water. Under 2% isoflurane-induced anesthesia, the abdomen was opened through a midline incision for the duodenum treatment and lower line for ileum or colon treatment. These intestines were exposed and protected with warm saline sponges around the intestine. Procedure 1: RTX application on the surface of intestine: The cotton applicator with RTX((0.32 mM) or vehicle solution were gently applied topically to the outer surface of entire duodenum (about 10 cm from the beginning of the duodenum) for 5 min. Same treatment in ileum and colon groups were applied on about 10 cm long of distal ileum and colon. Procedure 2: RTX or vehicle infused into duodenum: Two atraumatic clamps used to block on beginning and distal of duodenum. 0.8 ml of 0.32 mM RTX or vehicle was infused into duodenum through a glass syringe with a 27 gauge needle. After 30 min the RTX or vehicle solution were withdrawn and the clamps were released. After treatment, the abdominal incisions were closed.
RTX solution: RTX stock solution: 1 mg RTX+10% ethanol+10% Tween-80 in saline to make 1 μg RTX/μl in stock solution. RTX work solution (0.32 mM): stock RTX solution (0.2 ml)+Saline (0.8 ml); Vehicle (like stock solution without RTX)
The body weight of rats was measured before RTX treatment and each blood glucose testing day.
Data are presented as means±s.e. Data were compared using Student's t-test. Differences were considered significant at <0.05.

With `C=C(C)[C@]12C[C@@H](C)[C@@]34O[C@](Cc5ccccc5)(O[C@@H]1[C@@H]3C=C(COC(=O)Cc1ccc(O)c(OC)c1)C[C@]1(O)C(=O)C(C)=C[C@@H]41)O2` [RTX, Resiniferatoxin] the “glucose tolerance compared with vehicle group (OGTT)” value ([1]; 0.8 ml of 0.32 mM RTX infused into duodenum, 30 min, 2 hours testing time, all testing days) was “not significantly different”, the “glucose tolerance compared with vehicle group (OGTT)” value ([1]; RTX 0.32 mM topically on the surface of duodenum, 5 min, 30 and 45-minute peak levels, 1st, 3rd and 7th week post treatment, P<0.05) was “better glucose tolerance” and the “glucose tolerance compared with vehicle group (OGTT)” value ([1]; RTX 0.32 mM topically on the surface of ileum or colon, 2 hours testing time, all testing days) was “not significantly different”. The body weight ([2]; RTX infused into duodenum, 1st week post treatment) was 102.4±3.0, the body weight ([2]; RTX infused into duodenum, 3rd week post treatment) was 123.1±1.6 and the body weight ([2]; RTX infused into duodenum, 7th week post treatment) was 136.3±2.5. The “body weight compared with vehicle group” value ([2]; RTX infused into duodenum, all measurement days) was “not significantly different”, the body weight ([2]; RTX on the surface of duodenum, 1st week post treatment, P<0.05 vs vehicle and vs RTX infusion) was 92.0±1.0 and the “body weight compared with vehicle group” value ([2]; RTX on the surface of duodenum, 3rd and 7th week post treatment) was “not significantly different”. For the same compound, the body weight ([2]; RTX on the surface of duodenum, 3rd week post treatment, P<0.05 vs RTX infusion) was 110.5±2.6, the body weight ([2]; RTX on the surface of duodenum, 7th week post treatment, P<0.05 vs RTX infusion) was 118.9±0.9 and the “body weight compared with vehicle group” value ([2]; RTX on the surface of ileum or colon, all measurement days) was “not significantly different”.
